Measurements published in patent US10398671B2, “Fatty acid formulations and methods of use thereof” (Children's Hospital & Research Center at Oakland, priority 2007, dated 2019).

Legend:
[1] = tested on: global apraxia/dyspraxia; experiment: Case study Patient A: clinical observation of speech, coordination, tone and sensory symptoms; assay type: in vivo, human; conditions: for speech clarity and energy level/stamina: coenzyme Q 100 mg/day, vitamin C 250 mg/day and alpha-lipoic acid 300 mg/day added together to regimen, within 1 week
Protocol: They were placed on omega 3/6/9 fatty acid therapy.
In addition Vitamin K (to prevent adverse effect of vitamin K antagonism by high dose vitamin E), a complete multi-vitamin combination (with selenium, zinc and high B-complex and additional fat soluble vitamins) was also added to the daily regimen.

[2] = cited from earlier work
[3] = Plasma alpha-d-tocopherol level, Patient A; assay type: in vivo, human; conditions: despite high dose supplementation
Protocol: The vit E dose was increased over several weeks and is now in the range recommended for neurological complications of vit E deficiency (100-200 mg/kg/day alpha-d-tocopherol). Sokol et al. Gastroenterology 1993; 104(6):1727-35. […] All speech therapy and occupational therapy has been phased out due to this rapid and remarkable improvement within 5 months of beginning therapy, at which point it was felt by all evaluators to no longer be necessary.

Compound: Polyenylphosphatidylcholine
- stearrhea (fat absorption) ([1]; 3 grams/day, within a week of supplementation): decreased in stearrhea

Compound: COC1=C(OC)C(=O)C(C/C=C(\C)CC/C=C(\C)CC/C=C(\C)CC/C=C(\C)CC/C=C(\C)CC/C=C(\C)CC/C=C(\C)CC/C=C(\C)CC/C=C(\C)CCC=C(C)C)=C(C)C1=O [coenzyme Q, 2,3-dimethoxy-5-methyl-6-polyprenyl-1,4-benzoquinone]
- speech clarity and energy level/stamina [1]: increased clarity of speech and improved energy level/stamina

Compound: O=C1O[C@H]([C@@H](O)CO)C(O)=C1O [vitamin C, ascorbic acid]
- speech clarity and energy level/stamina [1]: increased clarity of speech and improved energy level/stamina

Compound: C[C@@H]1[C@H](O)[C@@H](C)/C=C/C=C/CC/C=C/C=C/C=C/C=C/C(O[C@H]2O[C@H](C)[C@@H](O)[C@H](N)[C@@H]2O)CC2O[C@](O)(CC(O)C(O)CCC(O)CC(O)CC(O)CC(=O)O[C@H]1C)CC(O)C2C(=O)O (some centres unmarked) [nystatin]
- neurologic benefits [1]: Further neurologic benefits

Compound: O=C(O)CCCCC1CCSS1 (stereo not drawn) [lipoic acid, α-lipoic acid]
- speech clarity and energy level/stamina [1]: increased clarity of speech and improved energy level/stamina
- pKa [2]: 4.7

Compound: Cc1c(C)c2c(c(C)c1O)CC[C@@](C)(CCC[C@H](C)CCC[C@H](C)CCCC(C)C)O2 [alpha-d-tocopherol]
- change of plasma levels of alpha-d-tocopherol [3]: did not change

Compound: C[C@]12C=CC(=O)C=C1CC[C@@H]1[C@@H]2C(=O)C[C@@]2(C)[C@H]1CC[C@]2(O)C(=O)CO [prednisone]
- speech, coordination and behavior ([1]; oral, used for allergic reactions and asthma exacerbations triggered by food allergy): improvement in speech, coordination and behavior
